In patent publication US20240327418A1, “MULTI-TARGET INHIBITOR TARGETING HDAC AND NAD SYNTHESIS AND USE OF MULTI-TARGET INHIBITOR” (OCEAN UNIVERSITY OF CHINA, priority 2021, published 2024):

Experiments:
[1] = test system: acute myelogenous leukemia cells MV4-11; experiment: GI50 and LC50 by NCI method, MV4-11; assay type: cell-based; conditions: Homo sapiens, 48 hours, Cell Titer-Blue
Method: (§1) The median growth inhibitory concentration (GI50) and median lethal concentration (LC50) were determined by NCI method. Leukemia cell strains MV4-11, HL60, PL21, KASUMI-1, MONO-MAC-1 and NB-4 were cultured in an Iscove's Modified Dulbecco Medium (IMDM) containing 10% fetal bovine serum, were inoculated into a 96-well cell culture plate at a density of 10,000 cells/100 μL and cultured overnight. 6 wells were selected as Tz wells, 0.125 mg/mL Cell Titer-Blue dye was added, and the cells were cultured for 4 hours and then the fluorescence intensity at […] (excitation wavelength/emission wavelength) was read. Compounds of different concentrations were added to the remaining wells, and a 100% control group was set. After 48 hours of cultivation, 0.125 mg/mL Cell Titer-Blue dye was added and the fluorescence intensity at […] was read after 4 hours. The fluorescence intensity of the dosing group was represented by Ti, the fluorescence intensity of the 100% control group was represented by C, and the fluorescence intensity before dosing was represented by Tz.
(§2) If Ti≥Tz, the formula [(Ti−Tz)/(C−Tz)]×100 was used.
(§3) If Ti<Tz, the formula [(Ti−Tz)/Tz]×100 was used.
(§4) The GI50 and LC50 values of some compounds on leukemia cell strains MV4-11, HL60, PL21, KASUMI-1, MONO-MAC-1 and NB-4 are shown in FIG. 1, Table 3, FIG. 2, and Table 4.

HDAC1 = HDAC1 (Homo sapiens (Human), UniProt Q13547); experiment: Inhibitory activity on HDAC1 (fluorescence enzyme assay); conditions: read-out: IC50 HDAC1; mean of three independent experiments
HDAC3 = HDAC3 (Homo sapiens (Human), UniProt O15379); experiment: Inhibitory activity on HDAC3 (fluorescence enzyme assay); conditions: read-out: IC50 HDAC3; mean of three independent experiments
HDAC2 = HDAC2 (Homo sapiens (Human), UniProt Q92769); experiment: Inhibitory activity on HDAC2 (fluorescence enzyme assay); conditions: read-out: IC50 HDAC2; mean of three independent experiments
[2] = test system: acute myelogenous leukemia cells HL60; experiment: GI50 and LC50 by NCI method, HL60; assay type: cell-based; conditions: for CC50 / GI50: Homo sapiens, HL-60, 48 hours, Cell Titer-Blue
Method: as §1, §2, §3, §4

NAMPT = NAMPT (Homo sapiens (Human), UniProt P43490); experiment: Inhibitory activity on NAMPT; assay type: biochemical; conditions: for IC50: mean of three independent experiments
leukemia cell line PL21 = experiment: GI50 and LC50 by NCI method, PL21; assay type: cell-based; conditions: PL-21; 48 hours, Cell Titer-Blue
Method: as §1, §2, §3, §4

leukemia cell line NB-4 = experiment: GI50 and LC50 by NCI method, NB-4; assay type: cell-based; conditions: 48 hours, Cell Titer-Blue; read-out: NB4 GI50
Method: as §1, §2, §3, §4

[3] = test system: leukemia cell line MONO-MAC-1; experiment: GI50 and LC50 by NCI method, MONO-MAC-1; assay type: cell-based; conditions: 48 hours, Cell Titer-Blue
Method: as §1, §2, §3, §4

[4] = test system: leukemia cell line KASUMI-1; experiment: GI50 and LC50 by NCI method, KASUMI-1; assay type: cell-based; conditions: Homo sapiens, 48 hours, Cell Titer-Blue
Method: as §1, §2, §3, §4

[5] = Pharmacokinetic properties in mice; assay type: in vivo
[6] = mouse, plasma, po 20 mg/kg single dose

Chain of NAMPT (P43490 whole entry, species assumed): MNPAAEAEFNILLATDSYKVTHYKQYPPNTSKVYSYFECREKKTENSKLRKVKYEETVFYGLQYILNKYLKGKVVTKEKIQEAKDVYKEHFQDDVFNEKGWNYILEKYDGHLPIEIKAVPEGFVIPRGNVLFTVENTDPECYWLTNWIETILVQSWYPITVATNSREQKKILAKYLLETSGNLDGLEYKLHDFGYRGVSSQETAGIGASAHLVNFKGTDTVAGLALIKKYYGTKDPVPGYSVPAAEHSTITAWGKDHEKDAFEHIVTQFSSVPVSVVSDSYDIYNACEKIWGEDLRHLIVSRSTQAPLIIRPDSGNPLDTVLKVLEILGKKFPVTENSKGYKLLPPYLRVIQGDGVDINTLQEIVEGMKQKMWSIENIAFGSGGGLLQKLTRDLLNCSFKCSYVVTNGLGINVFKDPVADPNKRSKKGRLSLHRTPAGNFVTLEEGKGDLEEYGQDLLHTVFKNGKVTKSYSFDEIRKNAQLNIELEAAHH
Chain of HDAC2 (Q92769 whole entry, species assumed): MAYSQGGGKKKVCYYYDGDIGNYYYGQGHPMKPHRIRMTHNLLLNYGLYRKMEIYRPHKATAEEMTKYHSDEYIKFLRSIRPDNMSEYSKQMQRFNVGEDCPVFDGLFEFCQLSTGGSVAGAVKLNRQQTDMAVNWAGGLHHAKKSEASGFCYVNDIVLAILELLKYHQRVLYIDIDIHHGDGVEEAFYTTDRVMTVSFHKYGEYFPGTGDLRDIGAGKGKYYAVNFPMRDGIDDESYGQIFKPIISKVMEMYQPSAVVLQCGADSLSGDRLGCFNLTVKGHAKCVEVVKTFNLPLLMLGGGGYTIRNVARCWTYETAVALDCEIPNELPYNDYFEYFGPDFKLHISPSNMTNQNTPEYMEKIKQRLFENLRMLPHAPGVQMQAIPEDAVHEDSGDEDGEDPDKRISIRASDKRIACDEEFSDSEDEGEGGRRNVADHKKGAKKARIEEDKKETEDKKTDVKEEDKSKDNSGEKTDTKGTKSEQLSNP
Chain of HDAC3 (O15379 whole entry, species assumed): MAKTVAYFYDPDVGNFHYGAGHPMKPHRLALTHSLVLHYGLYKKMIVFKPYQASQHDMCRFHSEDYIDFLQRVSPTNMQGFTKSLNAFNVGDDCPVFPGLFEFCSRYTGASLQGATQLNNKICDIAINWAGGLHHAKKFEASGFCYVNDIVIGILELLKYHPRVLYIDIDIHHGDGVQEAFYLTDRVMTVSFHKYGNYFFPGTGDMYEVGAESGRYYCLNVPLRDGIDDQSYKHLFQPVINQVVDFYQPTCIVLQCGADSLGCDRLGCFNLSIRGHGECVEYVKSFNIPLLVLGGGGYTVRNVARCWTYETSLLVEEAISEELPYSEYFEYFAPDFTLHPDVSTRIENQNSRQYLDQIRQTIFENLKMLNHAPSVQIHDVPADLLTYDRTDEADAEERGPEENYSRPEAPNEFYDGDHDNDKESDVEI
Chain of HDAC3 (Q9Y618 395-489 partner, species assumed): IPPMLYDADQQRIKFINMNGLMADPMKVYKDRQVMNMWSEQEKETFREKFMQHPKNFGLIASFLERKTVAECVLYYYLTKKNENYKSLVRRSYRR
Chain of HDAC1 (Q13547 whole entry, species assumed): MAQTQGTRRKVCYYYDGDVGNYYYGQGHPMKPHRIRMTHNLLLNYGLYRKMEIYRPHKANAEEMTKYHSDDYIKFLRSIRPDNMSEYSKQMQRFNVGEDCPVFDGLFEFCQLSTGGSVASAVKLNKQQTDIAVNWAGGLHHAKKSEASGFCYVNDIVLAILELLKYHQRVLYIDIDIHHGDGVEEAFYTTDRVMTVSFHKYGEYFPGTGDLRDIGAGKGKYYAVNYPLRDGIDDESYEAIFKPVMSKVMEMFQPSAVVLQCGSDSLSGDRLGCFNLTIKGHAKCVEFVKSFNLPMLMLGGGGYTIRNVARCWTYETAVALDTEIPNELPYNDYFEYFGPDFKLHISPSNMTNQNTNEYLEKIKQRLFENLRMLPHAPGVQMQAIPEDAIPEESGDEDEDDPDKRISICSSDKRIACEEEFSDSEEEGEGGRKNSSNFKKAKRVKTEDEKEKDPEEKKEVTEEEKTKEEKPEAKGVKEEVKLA

IC50 (HDAC1) [nM]	IC50 (HDAC3) [nM]	IC50 (HDAC2) [nM]	SMILES	GI50 [1] [nM]	LC50 (median lethal concentration) [1] [nM]	CC50 [2] [nM]	GI50 [2] [nM]	further results
		339	CCCNNC(=O)CCCCCCNC(=O)/C=C/c1cccnc1 [LEE3, (E)-N-(7-oxo-7-(2-propylhydrazino)heptyl)-3-(pyridin-3-yl) acrylamide]					
> 10000	1560	13600	CCCNNC(=O)CCNC(=O)/C=C/c1cccnc1 [LEE1, (E)-N-(3-oxo-3-(2-propylhydrazino)propyl)-3-(pyridin-3-yl) acrylamide]					
501	84.3	1180	CCCNNC(=O)c1ccc(CNC(=O)CCCCCCNC(=O)/C=C/c2cccnc2)cc1 [LEE39, (E)-N-(4-(2-propylhydrazino-1-carbonyl)benzyl)-7-(3-(pyridine-3-yl)acrylamido) heptanamide]					
241	76.7	506	CCCNNC(=O)CCCCCCCNC(=O)/C=C/c1cccnc1 [LEE4, (E)-N-(8-oxo-8-(2-propylhydrazino)octyl)-3-(pyridin-3-yl) acrylamide]					
17.8	1.98	84.1	CCCNNC(=O)c1ccc(CNC(=O)CCCCCCCNC(=O)/C=C/c2cccnc2)cc1 [LEE37, (E)-N-(4-(2-propylhydrazino-1-carbonyl)benzyl)-8-(3-(pyridine-3-yl)acrylamido) octanamide]					
18	1.08	78.7	CCCNNC(=O)c1ccc(NC(=O)CCCCCCCn2cc(-c3cccnc3)nn2)cc1 [LEE41, N-(4-(2-propylhydrazino-1-carbonyl)phenyl)-8-(4-(pyridin-3-yl)-1H-1,2,3-triazole-1-yl) octanamide]					
689	112	2000	CCCNNC(=O)CCCCNC(=O)/C=C/c1cccnc1 [LEE2, (E)-N-(5-oxo-5-(2-propylhydrazino)pentyl)-3-(pyridin-3-yl) acrylamide]					
444	110	398	CCCNNC(=O)CCCCCCNC(=O)NCc1cccnc1 [LEE5, 1-(7-oxo-7-(2-propylhydrazino)heptyl)-3-(pyridin-3-ylmethyl) urea]					
620	97.4	539	CCCNNC(=O)c1ccc(NC(=O)CCCCCCCNC(=O)/C=C/c2cccnc2)cc1 [LEE38, (E)-N-(4-(2-propylhydrazino-1-carbonyl)phenyl)-8-(3-(pyridine-3-yl)acrylamido) amide]					

Second part, the compound before the results:

SMILES	IC50 (HDAC1) [nM]	IC50 (HDAC3) [nM]	IC50 (HDAC2) [nM]	GI50 [1] [nM]	LC50 (median lethal concentration) [1] [nM]	CC50 [2] [nM]	GI50 [2] [nM]	further results
CCCNNC(=O)c1ccc(CNC(=O)/C=C/c2ccccn2)cc1 [LEE13, (E)-N-(4-(2-propylhydrazino-1-carbonyl)benzyl)-3-(pyridin-2-yl) acrylamide]	13.2	1.82	49.2	15	125	> 10000	128	
CCCNNC(=O)c1ccc(NC(=O)CCCCCCNC(=O)/C=C/c2cccnc2)cc1 [LEE40, (E)-N-(4-(2-propylhydrazino-1-carbonyl)phenyl)-7-(3-(pyridine-3-yl)acrylamido) heptamide]		12.4	123	15.7				
CCCNNC(=O)c1ccc(CNC(=O)/C=C/c2ccccc2)cc1 [Comparative example 1 LP411/3b, reference compound]	11.8		95.5	66		> 10000	121	IC50 (NAMPT): > 20000 nM; GI50 (leukemia cell line PL21): 523 nM; GI50 (leukemia cell line NB-4): 19.5 nM; CC50 [3]: > 10000 nM; GI50 [3]: 16.3 nM; GI50 [4]: 17.8 nM
Nc1ccccc1NC(=O)CCCCCCCn1cc(-c2cccnc2)nn1 [LEE11, N-(2-aminophenyl)-8-(4-(pyridin-3-yl)-1H-1,2,3-triazole-1-yl) octanamide]		8.78	188					
CCCNNC(=O)c1ccc(CNC(=O)c2cc3ccncc3[nH]2)cc1 [LEE21, N-(4-(2-propylhydrazino-1-carbonyl)benzyl)-1H-pyrrolo[2,3-c]pyridine-2-carboxamide]	8.17	2.42	51.5	25.4	58	> 10000	81.5	
CCCNNC(=O)c1ccc(CNC(=O)c2cc3cnccc3s2)cc1 [LEE19, N-(4-(2-propylhydrazin-1-carbonyl)benzyl)thiopheno[3,2-c]pyridin-2-carboxamide]	10.1	1.2	60	54	98.5	> 10000	77.3	
O=C(/C=C/c1cccnc1)NCCCCC1CCN(C(=O)c2ccccc2)CC1 [FK866, reference compound]				7.95		> 10000	12.1	
COC(=O)c1ccc(CNC(=O)/C=C/c2cccnc2)cc1 [LEE43, methyl (E)-4-((3-(pyridine-3-yl)acrylamido)methyl) benzoate]								inhibitory activity against NAMPT (in words) (NAMPT): micromolar level; IC50 (NAMPT): 4680 nM
CCCNNC(=O)CCCCCCNC(=O)c1cc2cnccc2[nH]1 [LEE7, N-(7-oxo-7-(2-propylhydrazino)heptyl)-3H-pyrrolo[3,2-c]pyridin-2-carboxamide]				64.7	164	724	158	LC50 values in p53-null cell strain HL60 (in words) [2]: nanomolar level
COC(=O)c1ccc(CNC(=O)c2cc3cnccc3[nH]2)cc1 [LEE44, methyl 4-((1H-pyrrolo[3,2-c]pyridine-2-carbonylamide)methyl) benzoate]								inhibitory activity against NAMPT (in words) (NAMPT): micromolar level; IC50 (NAMPT): 6710 nM
CCCNNC(=O)/C=C/c1ccc(CNCCc2c(C)[nH]c3ccccc23)cc1 [Comparative example 2 LP97/13a, reference compound]								AUC(0-t) [5, 6]: 242 ng·h/mL; Tmax [5, 6]: 30 min; Cmax ([5]; po 20 mg/kg single dose): 45.1 ng/mL; F ([5]; po 20 mg/kg vs iv 5 mg/kg): 19.8%; IC50 (NAMPT): > 20000 nM
CCCNNC(=O)c1ccc(CNC(=O)/C=C/c2ccncc2)cc1 [LEE14, (E)-N-(4-(2-propylhydrazino-1-carbonyl)benzyl)-3-(pyridin-4-yl)acrylamide]	12.7	2.74	88.5	14.3	83.6	6060	63.1	LC50 values in p53-null cell strain HL60 (in words) [2]: nanomolar level
CCCNNC(=O)c1ccc(CNC(=O)c2cc3cnccc3o2)cc1 [LEE20, N-(4-(2-propylhydrazino-1-carbonyl)benzyl)furan[3,2-c]pyridine-2-carboxyamide]	10.3	0.52	38.4	50.4	109	> 10000		
Nc1ccccc1NC(=O)CCCCCCCNC(=O)/C=C/c1cccnc1 [LEE8, (E)-N-(2-aminophenyl)-8-(3-(pyridin-3-yl)acrylamido) octanamide]	147	26.4	321	31.2	456			
